Assay results: patent US11633485B2, “Cleavable esters for nanocarrier-based cancer therapy” (priority 2017, dated 2023)

Tests used:
[1] = Acid strength (pKa) of the ester-forming acid of model compounds; type: physicochemical; conditions: pKa of the acid forming the ester bond
From the text: Table 1 illustrates the effect of acid strength on rate of hydrolytic cleavage for several model compounds.

[2] = tested on: MYCN-amplified NB cells (IMR-32, ATCC CCL-127); assay: Antiproliferative effect of co-drug loaded nanoparticles on neuroblastoma cells; type: cell-based; conditions: IMR-32 cells, doses equivalent to 5-20 ng SN-22 per well, 96-well plates
Protocol: Blank NP were used as a negative control, and unmodified SN-22, diluted in cell culture medium from a DMSO stock, was used as a positive control.
Cell growth curves of NB cells treated with co-drug loaded nanoparticles at doses corresponding to 5 ng SN-22 per well (96-well plates) for 24 hours are shown in comparison to “no treatment”, drug-free nanoparticles and free SN-22 (upper panel). Cell growth inhibition (%) determined 6 days post-treatment is shown for co-drug loaded and drug-free (control) nanoparticles as a function of dose and exposure duration (lower panel).

[3] = Release studies of co-drug loaded nanoparticles, external sink method; type: physicochemical; conditions: sink conditions, 37° C., acceptor medium heptane/methyl tert-butyl ether 1:1 v/v
Protocol: Release samples were also analyzed by TLC (right panel). […] (lane 3 vs. 2). Free SN-22 is included in lane 1.

Molecule	Acid pKa [1]	other results
CCOC(=O)COC(C)=O [CH3COOCH2COOEt]	2.7	–
CCOC(C)=O [CH3COOEt]	4.7	–
CCOC(=O)C(=O)NC [CH3NHCOCOEt]	1.8	–
CCOC(=O)COC [CH3OCH2COOEt]	3.6	–
CCc1c2c(nc3ccccc13)-c1cc3c(c(=O)n1C2)COC(=O)[C@]3(O)CC [SN-22, 7-ethylcamptothecin]	–	Cell growth / proliferation inhibition [2]: fully inhibited cell growth
SN-22 ester of tocopheryl oxyacetic acid [SN22-TOAc]	–	Release rate from nanoparticles [3]: more stable retention
